# According to ChEMBL document CHEMBL1687870, “Antimicrobial isopropenyl-dihydrofuranoisoflavones from Crotalaria lachnophora” (2011):
# The source made the active and inactive calls. No cut-off for these calls is given here.
# What was measured:
# Candida albicans = assay: Antifungal activity against Candida albicans DSM 1386 after 24 hrs by disk diffusion method; type: functional, organism-based
# Escherichia coli = assay: Antimicrobial activity against Escherichia coli DSM 682 after 24 hrs by disk diffusion method; type: functional
# Aspergillus niger = assay: Antifungal activity against Aspergillus niger DSM 1988 after 48 hrs by disk diffusion method; type: functional, organism-based
# Pseudomonas aeruginosa = assay: Antimicrobial activity against Pseudomonas aeruginosa DSM 1128 at 1 ug/ul after 24 hrs by disk diffusion method; type: functional
# Klebsiella pneumoniae = assay: Antimicrobial activity against Klebsiella pneumoniae DSM 681 at 1 ug/ul after 24 hrs by disk diffusion method; type: functional
# Staphylococcus aureus = assay: Antimicrobial activity against Staphylococcus aureus DSM 799 at 1 ug/ul after 24 hrs by disk diffusion method; type: functional
Compound,Activity (Candida albicans),diameter of the inhibition zone (DIZ) (Escherichia coli) [mm],Activity (Aspergillus niger),Activity (Pseudomonas aeruginosa),diameter of the inhibition zone (DIZ) (Klebsiella pneumoniae) [mm],Activity (Staphylococcus aureus),inhibition zone (IZ) (Escherichia coli) [mm],inhibition zone (IZ) (Pseudomonas aeruginosa) [mm],inhibition zone (IZ) (Klebsiella pneumoniae) [mm],inhibition zone (IZ) (Staphylococcus aureus) [mm],diameter of the inhibition zone (DIZ) (Pseudomonas aeruginosa) [mm],diameter of the inhibition zone (DIZ) (Staphylococcus aureus) [mm]
C=C(C)C1Cc2c(cc3oc4oc5cc(O)ccc5c4c(=O)c3c2O)O1 (stereo unspecified) [LACHNOISOFLAVONE B],inactive,7,inactive,inactive,7.3,inactive,,,,,,
O=c1c(-c2ccc(O)cc2O)coc2cc(O)cc(O)c12,inactive,7,inactive,inactive,7,inactive,,,,,,
GENTAMICIN,,,,,,,16.3,20.3,14.3,15.3,,
C[C@@H]1O[C@@H](Oc2cc(O)c3c(=O)cc(-c4ccc(O)c(O)c4)oc3c2)[C@H](O)[C@H](O)[C@H]1O,inactive,10.7,inactive,inactive,7.7,inactive,,,,,,
C=C(C)C1Cc2c(O)cc3occ(-c4ccc(O)cc4O)c(=O)c3c2O1 (racemic),inactive,8.3,inactive,inactive,7,inactive,,,,,,
C=C(C)[C@H]1Cc2c(cc3occ(-c4ccc(O)cc4)c(=O)c3c2O)O1 [LICOAGROISOFLAVONE],inactive,7.3,inactive,inactive,9.3,inactive,,,,,,
COc1cc2occ(-c3ccc(O)cc3)c(=O)c2c(O)c1OC [7-O-METHYLTECTORIGENIN],inactive,9.3,inactive,inactive,7,inactive,,,,,,
CN(C)[C@@H]1C(O)=C(C(N)=O)C(=O)[C@@]2(O)C(O)=C3C(=O)c4c(O)cccc4[C@@](C)(O)[C@H]3C[C@@H]12 [TETRACYCLINE],,22.3,,,26.3,,,,,,17.7,20.7
CN[C@@H]1[C@H](O[C@H]2[C@H](O[C@H]3[C@H](O)[C@@H](O)[C@H](N=C(N)N)[C@@H](O)[C@@H]3N=C(N)N)O[C@@H](C)[C@]2(O)C=O)O[C@@H](CO)[C@H](O)[C@H]1O [STREPTOMYCIN],,19.3,,inactive,21.3,inactive,,,,,,
COc1cc(O)c2c(c1)OC[C@H](c1ccc(O)cc1OC)C2=O [CAJANOL],inactive,7.3,inactive,inactive,9.3,inactive,,,,,,
CC1(C)S[C@@H]2[C@H](NC(=O)[C@H](N)c3ccccc3)C(=O)N2[C@H]1C(=O)O [AMPICILLIN],,24.3,,inactive,11.7,inactive,,,,,,
COc1cc(-c2coc3cc(O)cc(O)c3c2=O)ccc1O [3'-O-METHYLOROBOL],inactive,7,inactive,inactive,8.3,inactive,,,,,,
COc1cc(O)c2c(=O)c(-c3ccc(O)cc3O)coc2c1 [CAJANIN],inactive,7.3,inactive,inactive,9.7,inactive,,,,,,
COc1cc(O)c2c(=O)c(-c3ccc(O)cc3)coc2c1 [PRUNETIN],inactive,7.3,inactive,inactive,9.3,inactive,,,,,,
